# Measured values as given in patent US20220267736A1, “PLURIPOTENT STEM CELL AGGREGATION SUPPRESSOR” (KANEKA CORPORATION, priority 2017, published 2022).
# Test system: human iPS cells (TkDN4-M)
# Experiment: Cell aggregate size distribution (widest portion) from micrographs during suspension culture
# Format: cell-based
# Settings: cytochalasin D 20 nM, jasplakinolide 20 nM, demecolcine 10 ng/mL; for percentage of cell aggregates whose size (diameter) was 40 μm or more and 300 μm or less, relative to the total cell aggregate count / percentage of cell aggregates whose size (diameter) was 60 μm or more and 300 μm or less / percentage of cell aggregates whose size (diameter) was 80 μm or more and 300 μm or less / percentage of cell aggregates whose size (diameter) was 100 μm or more and 300 μm or less / Number of cell aggregates by size / Percentage of cell aggregates by size: Day 1, DMSO 1%; for average ± standard deviation of cell aggregate sizes (diameters): Day 1 of culture, DMSO 1% (v/v), Y-27632 10 μM
# Description: Cell suspensions were prepared in the same manner as in Example 2, and separately, the concentrations of the suppressors of cell aggregation were adjusted so that the final concentration of demecolcine (same as above) was 10 mg/mL (26.9 mM), the final concentration of cytochalasin D (same as above) was 0.51 mg/mL (1 mM), the concentration of DMSO (the same as above) was the stock concentration, or the final concentration of jasplakinolide (Cayman, 11705) was 0.14 mg/mL (0.2 mM). Then the concentration-adjusted cell aggregation suppressors were added to the cell suspensions so that the final concentration of demecolcine was 10 ng/mL, the final concentration of cytochalasin D was 20 nM, the final concentration of DMSO was 1% (v/v), or the final concentration of jasplakinolide was 20 nM, and the cells were seeded at a rate of 4 mL/well in a 6-well plate for suspension culture (Sumitomo Bakelite Co., Ltd., Japan). The cell-seeded plate was subjected to a swirling culture on a rotary shaker (OPTIMA, Inc., Japan) at a speed of 90 rpm along the horizontal plane to draw a circle with a swirling width (diameter) of 25 mm and cells were subjected to suspension culture under the environment of 5% CO2 and 37° C. After the next day of culture (Day 1 of culture), the culture medium was exchanged daily with a fresh culture medium (Essential 8™ culture medium containing BSA (Wako Pure Chemical Industries, Ltd.) at a final concentration of 5 mg/mL), and the culture was continued until 5 days after the start of culture. Images were obtained by phase contrast microscopy every day during culture. While 182 to 252 cell aggregates in images obtained on Day 1 of culture being observed and compared using a micrograph scale, the width (referred to as “φ”) of the widest portion of each cell aggregate was measured, distribution thereof was examined, and average±standard deviation was calculated. The concentration of glucose contained in the culture supernatant collected at the time of culture medium exchange was measured with biosensor BF-5iD (Prince Measuring Equipment Co., Ltd.) to calculate glucose consumption.
smiles,measurement,setting,value
"C[S+](C)[O-] [DMSO, dimethylsulfoxide]","percentage of cell aggregates whose size (diameter) was 40 μm or more and 300 μm or less, relative to the total cell aggregate count",,100%
same,percentage of cell aggregates whose size (diameter) was 60 μm or more and 300 μm or less,,100%
same,percentage of cell aggregates whose size (diameter) was 80 μm or more and 300 μm or less,,98.5%
same,percentage of cell aggregates whose size (diameter) was 100 μm or more and 300 μm or less,,96.0%
same,Number of cell aggregates by size,size range 40− μm,0
same,Percentage of cell aggregates by size,size range 40− μm,0.0%
same,Number of cell aggregates by size,size range 60− μm,3
same,Percentage of cell aggregates by size,size range 60− μm,1.5%
same,Number of cell aggregates by size,size range 80− μm,5
same,Percentage of cell aggregates by size,size range 80− μm,2.5%
same,Number of cell aggregates by size,size range 100− μm,2
same,Percentage of cell aggregates by size,size range 100− μm,1.0%
same,Number of cell aggregates by size,size range 120− μm,24
same,Percentage of cell aggregates by size,size range 120− μm,12.1%
same,Number of cell aggregates by size,size range 140− μm,56
same,Percentage of cell aggregates by size,size range 140− μm,28.1%
same,Number of cell aggregates by size,size range 160− μm,56
same,Percentage of cell aggregates by size,size range 160− μm,28.1%
same,Number of cell aggregates by size,size range 180− μm,33
same,Percentage of cell aggregates by size,size range 180− μm,16.6%
same,Number of cell aggregates by size,size range 200− μm,12
same,Percentage of cell aggregates by size,size range 200− μm,6.0%
same,Number of cell aggregates by size,size range 220− μm,5
same,Percentage of cell aggregates by size,size range 220− μm,2.5%
same,Number of cell aggregates by size,size range 240− μm,1
same,Percentage of cell aggregates by size,size range 240− μm,0.5%
same,Number of cell aggregates by size,size range 260− μm,1
same,Percentage of cell aggregates by size,size range 260− μm,0.5%
same,Number of cell aggregates by size,size range 280− μm,1
same,Percentage of cell aggregates by size,size range 280− μm,0.5%
same,Number of cell aggregates by size,size range 300− μm,0
same,Percentage of cell aggregates by size,size range 300− μm,0.0%
same,average ± standard deviation of cell aggregate sizes (diameters),,164.8±31.8 μm
C=C1[C@@H](C)[C@H]2[C@H](Cc3ccccc3)NC(=O)[C@]23[C@H](OC(C)=O)/C=C/[C@@](C)(O)C(=O)[C@@H](C)C/C=C/[C@H]3[C@@H]1O [cytochalasin D],"percentage of cell aggregates whose size (diameter) was 40 μm or more and 300 μm or less, relative to the total cell aggregate count",,100%
same,percentage of cell aggregates whose size (diameter) was 60 μm or more and 300 μm or less,,96%
same,percentage of cell aggregates whose size (diameter) was 80 μm or more and 300 μm or less,,88.1%
same,percentage of cell aggregates whose size (diameter) was 100 μm or more and 300 μm or less,,80.6%
same,Number of cell aggregates by size,size range 40− μm,10
same,Percentage of cell aggregates by size,size range 40− μm,4.0%
same,Number of cell aggregates by size,size range 60− μm,20
same,Percentage of cell aggregates by size,size range 60− μm,7.9%
same,Number of cell aggregates by size,size range 80− μm,19
same,Percentage of cell aggregates by size,size range 80− μm,7.5%
same,Number of cell aggregates by size,size range 100− μm,26
same,Percentage of cell aggregates by size,size range 100− μm,10.3%
same,Number of cell aggregates by size,size range 120− μm,60
same,Percentage of cell aggregates by size,size range 120− μm,23.8%
same,Number of cell aggregates by size,size range 140− μm,66
same,Percentage of cell aggregates by size,size range 140− μm,26.2%
same,Number of cell aggregates by size,size range 160− μm,40
same,Percentage of cell aggregates by size,size range 160− μm,15.9%
same,Number of cell aggregates by size,size range 180− μm,10
same,Percentage of cell aggregates by size,size range 180− μm,4.0%
same,Number of cell aggregates by size,size range 200− μm,0
same,Percentage of cell aggregates by size,size range 200− μm,0.0%
same,Number of cell aggregates by size,size range 220− μm,1
same,Percentage of cell aggregates by size,size range 220− μm,0.4%
same,Number of cell aggregates by size,size range 240− μm,0
same,Percentage of cell aggregates by size,size range 240− μm,0.0%
same,Number of cell aggregates by size,size range 260− μm,0
same,Percentage of cell aggregates by size,size range 260− μm,0.0%
same,Number of cell aggregates by size,size range 280− μm,0
same,Percentage of cell aggregates by size,size range 280− μm,0.0%
same,Number of cell aggregates by size,size range 300− μm,0
same,Percentage of cell aggregates by size,size range 300− μm,0.0%
same,average ± standard deviation of cell aggregate sizes (diameters),,132.5±34.8 μm
CN[C@H]1CCc2cc(OC)c(OC)c(OC)c2-c2ccc(OC)c(=O)cc21 [demecolcine],"percentage of cell aggregates whose size (diameter) was 40 μm or more and 300 μm or less, relative to the total cell aggregate count",,100%
same,percentage of cell aggregates whose size (diameter) was 60 μm or more and 300 μm or less,,97.3%
same,percentage of cell aggregates whose size (diameter) was 80 μm or more and 300 μm or less,,93.5%
same,percentage of cell aggregates whose size (diameter) was 100 μm or more and 300 μm or less,,92.4%
same,Number of cell aggregates by size,size range 40− μm,5
same,Percentage of cell aggregates by size,size range 40− μm,2.7%
same,Number of cell aggregates by size,size range 60− μm,7
same,Percentage of cell aggregates by size,size range 60− μm,3.8%
same,Number of cell aggregates by size,size range 80− μm,2
same,Percentage of cell aggregates by size,size range 80− μm,1.1%
same,Number of cell aggregates by size,size range 100− μm,0
same,Percentage of cell aggregates by size,size range 100− μm,0.0%
same,Number of cell aggregates by size,size range 120− μm,2
same,Percentage of cell aggregates by size,size range 120− μm,1.1%
same,Number of cell aggregates by size,size range 140− μm,16
same,Percentage of cell aggregates by size,size range 140− μm,8.8%
same,Number of cell aggregates by size,size range 160− μm,37
same,Percentage of cell aggregates by size,size range 160− μm,20.3%
same,Number of cell aggregates by size,size range 180− μm,45
same,Percentage of cell aggregates by size,size range 180− μm,24.7%
same,Number of cell aggregates by size,size range 200− μm,38
same,Percentage of cell aggregates by size,size range 200− μm,20.9%
same,Number of cell aggregates by size,size range 220− μm,19
same,Percentage of cell aggregates by size,size range 220− μm,10.4%
same,Number of cell aggregates by size,size range 240− μm,8
same,Percentage of cell aggregates by size,size range 240− μm,4.4%
same,Number of cell aggregates by size,size range 260− μm,2
same,Percentage of cell aggregates by size,size range 260− μm,1.1%
same,Number of cell aggregates by size,size range 280− μm,0
same,Percentage of cell aggregates by size,size range 280− μm,0.0%
same,Number of cell aggregates by size,size range 300− μm,1
same,Percentage of cell aggregates by size,size range 300− μm,0.5%
same,average ± standard deviation of cell aggregate sizes (diameters),,184.9±44.9 μm
C/C1=C\[C@H](C)C[C@H](C)OC(=O)C[C@H](c2ccc(O)cc2)NC(=O)[C@@H](Cc2c(Br)[nH]c3ccccc23)N(C)C(=O)[C@H](C)NC(=O)[C@@H](C)C1 [jasplakinolide],"percentage of cell aggregates whose size (diameter) was 40 μm or more and 300 μm or less, relative to the total cell aggregate count",,100%
same,percentage of cell aggregates whose size (diameter) was 60 μm or more and 300 μm or less,,98.1%
same,percentage of cell aggregates whose size (diameter) was 80 μm or more and 300 μm or less,,96.2%
same,percentage of cell aggregates whose size (diameter) was 100 μm or more and 300 μm or less,,95.7%
same,Number of cell aggregates by size,size range 40− μm,4
same,Percentage of cell aggregates by size,size range 40− μm,1.9%
same,Number of cell aggregates by size,size range 60− μm,4
same,Percentage of cell aggregates by size,size range 60− μm,1.9%
same,Number of cell aggregates by size,size range 80− μm,1
same,Percentage of cell aggregates by size,size range 80− μm,0.5%
same,Number of cell aggregates by size,size range 100− μm,8
same,Percentage of cell aggregates by size,size range 100− μm,3.9%
same,Number of cell aggregates by size,size range 120− μm,23
same,Percentage of cell aggregates by size,size range 120− μm,11.2%
same,Number of cell aggregates by size,size range 140− μm,52
same,Percentage of cell aggregates by size,size range 140− μm,25.2%
same,Number of cell aggregates by size,size range 160− μm,66
same,Percentage of cell aggregates by size,size range 160− μm,32.0%
same,Number of cell aggregates by size,size range 180− μm,30
same,Percentage of cell aggregates by size,size range 180− μm,14.6%
same,Number of cell aggregates by size,size range 200− μm,9
same,Percentage of cell aggregates by size,size range 200− μm,4.4%
same,Number of cell aggregates by size,size range 220− μm,4
same,Percentage of cell aggregates by size,size range 220− μm,1.9%
same,Number of cell aggregates by size,size range 240− μm,1
same,Percentage of cell aggregates by size,size range 240− μm,0.5%
same,Number of cell aggregates by size,size range 260− μm,1
same,Percentage of cell aggregates by size,size range 260− μm,0.5%
same,Number of cell aggregates by size,size range 280− μm,2
same,Percentage of cell aggregates by size,size range 280− μm,1.0%
same,Number of cell aggregates by size,size range 300− μm,1
same,Percentage of cell aggregates by size,size range 300− μm,0.5%
same,average ± standard deviation of cell aggregate sizes (diameters),,162.7±37.2 μm
